Measurements: patent US10086006B2, “Method for improving drug treatments in mammals” (priority 2013, dated 2018)
Values after ≈ are worked out from the molar mass of the structure shown. Like-named read-outs stand apart in the source and are kept apart here.

Key:
[1] = test system: Escherichia coli (ATCC 25922); test: Susceptibility test (MIC) of fosfomycin against wild-type Escherichia coli; format: cell-based
Method: MIC as used herein refers to the minimum inhibitory concentration (MIC) of an antimicrobial that will inhibit the visible growth of a microorganism after overnight incubation. MICs are important in diagnostic laboratories to confirm resistance of microorganisms to an antimicrobial agent and also to monitor the activity of new antimicrobial agents. A MIC is generally regarded as the most basic laboratory measurement of the activity of an antimicrobial agent against an organism. Clinically, the MICs are used not only to determine the amount of antibiotic that a patient will receive but also the type of antibiotic used, which in turn lowers the opportunity for microbial resistance to specific antimicrobial agents. Applying MIC testing to a number of bacterial strains in the same species provides an estimate of the concentration that inhibits 50% (MIC50) and 90% (MIC90) of bacterial isolates and can indicate shifts in susceptibility of bacterial populations to antibiotics.
(§1) A dose-fractionation study was conducted utilizing a wild-type strain of Escherichia coli (ATCC 25922; fosfomycin MIC=0.5 mg/L agar; 1 mg/L broth microtiter) in a one-compartment in vitro infection model where the human drug concentration-time profile was simulated over a 24 hour study period.
(§2) Another reason may be the volume of the micro-titer well (100-200 μL) used in the test method is small, containing 50,000-100,000 CFU. The inherently fosfomycin-resistant subpopulation has a frequency of 1 in 350,000 CFU. Thus, for fosfomycin, the standard susceptibility test method is an insensitive measure of the drug concentration required to inhibit a clinically relevant bacterial inoculum.

[2] = test system: fosfomycin-resistant E. coli subpopulation (ATCC 25922); test: Susceptibility (agar MIC, RIC) of the inherently fosfomycin-resistant subpopulation; format: cell-based, Escherichia coli; settings: resistant subpopulation within the standard starting inoculum 5×10^5 CFU/mL
Method: RIC as used herein refers to the resistant inhibitory concentration and identifies the concentrations of antimicrobial required to inhibit the less susceptible or ‘resistant’ mutant subpopulation of organisms. RIC is a new term coined by the inventors of the present invention and is utilized throughout the specification herewith.
as §2
(§3) Note the relatively stronger relationship between the change in bacterial density and AUC0-24:RIC ratio and % T>RIC compared with that for Cmax:RIC ratio, where RIC is the concentration needed to inhibit the fosfomycin-resistant subpopulation.

[3] = test system: Escherichia coli (ATCC 25922); test: Dose-fractionation study in a one-compartment in vitro infection model; format: cell-based
Method: as §1
In such a circumstance, one way to overcome the poor sensitivity of the susceptibility test method is to increase the inoculum size and/or the volume of test system. The one-compartment in vitro infection model is a much more sensitive tool to measure the drug concentration required to inhibit a clinically relevant bacterial inoculum owing to its ability accommodate a higher inoculum and the larger volume (125 mL) of the test system. For this reason, dose-fractionation studies were conducted using a one-compartment in vitro infection model to identify the PK-PD measure most closely associated with efficacy.
as §3

[4] = test system: Escherichia coli ATCC 25922; test: Neutropenic murine-thigh infection model; format: in vivo; settings: neutropenic mice
Method: In vivo animal studies utilizing the neutropenic murine-thigh model were conducted to confirm key results obtained from the in vitro PK-PD infection models. Initial goals of the studies were to confirm the presence of a clinically-relevant fosfomycin-resistant subpopulation in vivo and to confirm % T>RIC was the PK-PD measure that predicted response.
In brief, six-week-old specific-pathogen-free female CD1 (ICR/Swiss) mice were rendered neutropenic by two intra-peritoneal injections of cyclophosphamide, 150 mg/kg of body weight 4 days prior to the study and 100 mg/kg 1 day prior to the study. The challenge isolate was Escherichia coli ATCC 25922 (fosfomycin MIC, 1 mg/L), which was the same strain used in the aforementioned in vitro PK-PD infection model studies. […]
To determine which PK-PD measure best described efficacy, the number of bacteria in the thigh at the end of 24 hours of therapy (or earlier for some of the lowest doses) was correlated with 1) the Cmax:MIC ratio, 2) the 24-hour AUC0-24:MIC ratio, 3) the percentage of the dosing interval during that serum concentrations exceed the MIC, and 4) the percentage of the dosing interval during that serum concentrations exceed the RIC for each of the dosage regimens studied. […] The correlation between efficacy and each of the […] PK-PD indices was determined by nonlinear least-squares multivariate regression. […]

C[C@@H]1O[C@@H]1P(=O)(O)O [fosfomycin]
MIC ([1]; ATCC25922, E. coli ATCC 25922 challenge isolate, method not stated, read-out: fosfomycin MIC of the challenge isolate): 1 µg/mL
MIC ([1]; ATCC25922, agar, wild-type E. coli ATCC 25922, read-out: fosfomycin MIC (agar)): 0.5 µg/mL (≈ 3.62 µM)
MIC ([1]; ATCC25922, broth microtiter, wild-type E. coli ATCC 25922, read-out: fosfomycin MIC (broth microtiter)): 1 µg/mL (≈ 7.24 µM)
MIC ([2]; Escherichia coli, ATCC25922, agar): 32 to 64 µg/mL
agar MIC of the fosfomycin-resistant subpopulation ([2]; agar): 32 µg/mL
relation of bacterial killing to dosing interval ([3]; at maximally effective AUC0-24:RIC ratios and free-drug % T>RIC, 24 hour): as the duration of the dosing interval decreases, the amount of bacterial killing increases
range of the change in bacterial density at 24 hours between regimens ([3]; regimens identical in total daily dose and % T>MIC (100%), differing in dosing interval, simulated human concentration-time profile): 8 log10
density of the drug-resistant subpopulation in the thighs after 24 hours of therapy ([4]; dose range 1.56 to 400 mg/kg every 3 hours): eliminated at the highest dose-level
PK-PD measure correlated with change in log10 CFU in the thighs after 24 hours of therapy ([4]; dosing intervals of 3, 6, 12, and 24 hours): % T>RIC was well-correlated with change in bacterial density
